Like-named read-outs stand apart in the source and are kept apart here.
Columns and labels:
[1] = target: T1, cIAP2-MALT1 fusion protein (Homo sapiens, UniProt Q9UDY8); settings: read-out: NFkappaB reporter gene assay IC50; HEK293 stably expressing cIAP2-MALT1, luciferase, 24 h compound incubation
[2] = target: C-domain of MALT1 (amino acids 329-824) (Homo sapiens (Human), UniProt Q9UDY8); experiment: MALT1 biochemical assay (fluorescence lifetime enzyme activity assay); settings: 60 min pre-incubation, 2.5 nM enzyme, 1 μM peptide substrate
Human IL2 promoter = Human IL2 promoter reporter gene assay (RGA) in Jurkat cells; format: cell-based; settings: Jurkat clone K22 290_H23, anti-CD28 mAb + PMA stimulation 5.5 h
Outline: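 Transfected Jurkat clone K22 290_H23 cells were pre-incubated with compounds 30 min at 37 °C, then stimulated 5.5 h with anti-CD28 mAb (15E8, 3 μg/ml) plus PMA (1 μg/ml). IL2-promoter reporter activity was read as BriteLitePlus bioluminescence.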

[3] = target: T1, cIAP2-MALT1 fusion protein; experiment: cell-based

C-domain of MALT1 (amino acids 329-824), sequence (Q9UDY8 329-824): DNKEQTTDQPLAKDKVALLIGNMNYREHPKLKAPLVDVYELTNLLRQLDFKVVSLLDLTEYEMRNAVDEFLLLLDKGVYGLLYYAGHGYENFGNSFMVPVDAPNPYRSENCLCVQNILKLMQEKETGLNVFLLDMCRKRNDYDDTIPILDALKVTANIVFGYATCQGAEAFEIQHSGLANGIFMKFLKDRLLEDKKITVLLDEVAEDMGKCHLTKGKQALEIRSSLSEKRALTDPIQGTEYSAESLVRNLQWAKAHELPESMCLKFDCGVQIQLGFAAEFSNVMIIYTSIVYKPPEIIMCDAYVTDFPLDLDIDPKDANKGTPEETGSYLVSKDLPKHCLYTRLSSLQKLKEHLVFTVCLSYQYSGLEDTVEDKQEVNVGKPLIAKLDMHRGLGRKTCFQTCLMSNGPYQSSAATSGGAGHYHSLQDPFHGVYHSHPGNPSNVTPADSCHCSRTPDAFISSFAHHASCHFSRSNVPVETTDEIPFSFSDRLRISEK
T1 sequence (Q9UDY8 2-824 limits assumed): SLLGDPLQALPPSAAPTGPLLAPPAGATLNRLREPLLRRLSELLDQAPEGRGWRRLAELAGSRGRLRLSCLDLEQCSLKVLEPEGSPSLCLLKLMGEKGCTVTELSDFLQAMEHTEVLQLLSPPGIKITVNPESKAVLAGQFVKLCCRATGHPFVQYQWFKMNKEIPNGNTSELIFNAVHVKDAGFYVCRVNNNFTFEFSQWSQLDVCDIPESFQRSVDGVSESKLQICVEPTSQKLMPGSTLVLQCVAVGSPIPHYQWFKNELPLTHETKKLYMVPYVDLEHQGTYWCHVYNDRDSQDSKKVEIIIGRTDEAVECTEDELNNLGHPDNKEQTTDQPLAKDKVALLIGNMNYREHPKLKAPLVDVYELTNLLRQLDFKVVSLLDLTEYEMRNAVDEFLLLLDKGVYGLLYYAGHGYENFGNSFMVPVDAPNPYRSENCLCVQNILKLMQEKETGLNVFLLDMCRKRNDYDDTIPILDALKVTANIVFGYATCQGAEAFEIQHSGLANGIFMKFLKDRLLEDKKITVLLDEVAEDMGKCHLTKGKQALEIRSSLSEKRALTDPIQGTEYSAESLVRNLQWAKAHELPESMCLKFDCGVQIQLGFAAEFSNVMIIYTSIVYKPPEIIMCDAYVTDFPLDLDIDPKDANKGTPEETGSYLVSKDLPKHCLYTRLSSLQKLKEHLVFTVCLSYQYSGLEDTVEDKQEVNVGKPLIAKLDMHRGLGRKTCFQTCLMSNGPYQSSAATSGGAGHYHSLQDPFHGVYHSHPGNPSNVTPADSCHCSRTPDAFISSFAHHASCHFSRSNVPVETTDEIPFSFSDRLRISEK

SMILES | IC50 [1] [nM] | IC50 [2] [nM] | IC50 (Human IL2 promoter) [nM] | IC50 [3] [nM]
C[C@H](c1c(NC(=O)Nc2cnc(-n3nccn3)c(Cl)c2)cnc2cc(Cl)nn12)N(C)C [Example 121, (R)-1-(5-chloro-6-(2H-1,2,3-triazol-2-yl)pyridin-3-yl)-3-(2-chloro-7-(1-(dimethylamino)ethyl)pyrazolo[1,5-a]pyrimidin-6-yl)urea] | 218 |  |  | 
Cc1cc2ncc(NC(=O)Nc3cnc(-n4nccn4)c(Cl)c3)c(C3(C)CC3)n2n1 [Example 72, 1-(5-chloro-6-(2H-1,2,3-triazol-2-yl)pyridin-3-yl)-3-(2-methyl-7-(1-methylcyclopropyl)pyrazolo[1,5-a]pyrimidin-6-yl)urea] |  | 3 | 140 | 179
COCCO[C@@H](C)c1c(NC(=O)Nc2ccnc(C(F)(F)F)c2)cnc2cc(Cl)nn12 [Example 41, (S)-1-(2-chloro-7-(1-(2-methoxyethoxy)ethyl)pyrazolo[1,5-a]pyrimidin-6-yl)-3-(2-(trifluoromethyl)pyridin-4-yl)urea] | 356 |  |  | 
O=C(Nc1cnc(-n2nccn2)c(Cl)c1)Nc1cnc2cc(Cl)nn2c1C1CC12CCOC2 (stereo not drawn) [Example 68, 1-(5-chloro-6-(2H-1,2,3-triazol-2-yl)pyridin-3-yl)-3-(2-chloro-7-(5-oxaspiro[2.4]heptan-1-yl)pyrazolo[1,5-a]pyrimidin-6-yl)urea] | 586 |  |  | 
Cc1c(NC(=O)Nc2cnc(-n3nccn3)c(Cl)c2)cnc2cc(Cl)nn12 [Example 62, 1-(5-chloro-6-(2H-1,2,3-triazol-2-yl)pyridin-3-yl)-3-(2-chloro-7-methylpyrazolo[1,5-a]pyrimidin-6-yl)urea] |  | 42 | 266 | 345
COCCO[C@@H](C)c1c(NC(=O)Nc2cnc(OC)c(Cl)c2)cnc2cc(Cl)nn12 [Example 40, (S)-1-(5-chloro-6-methoxypyridin-3-yl)-3-(2-chloro-7-(1-(2-methoxyethoxy)ethyl)pyrazolo[1,5-a]pyrimidin-6-yl)urea] |  | 6 | 43 | 112
O=C(Nc1cnc(-n2nccn2)c(Cl)c1)Nc1cnc2cc(Cl)nn2c1C1CCC1 [Example 38, 1-(5-chloro-6-(2H-1,2,3-triazol-2-yl)pyridin-3-yl)-3-(2-chloro-7-cyclobutylpyrazolo[1,5-a]pyrimidin-6-yl)urea] |  | 5 | 145 | 176
CN(C)C1(c2c(NC(=O)Nc3cnc(-n4nccn4)c(Cl)c3)cnc3cc(Cl)nn23)CC1 [Example 88, 1-(5-chloro-6-(2H-1,2,3-triazol-2-yl)pyridin-3-yl)-3-(2-chloro-7-(1-(dimethylamino)cyclopropyl)pyrazolo[1,5-a]pyrimidin-6-yl)urea] |  | 14 | 47 | 102
Cc1cnn(-c2ncc(NC(=O)Nc3cnc4cc(Cl)nn4c3C(C)C)cc2Cl)n1 [Example 22, 1-(5-chloro-6-(4-methyl-2H-1,2,3-triazol-2-yl)pyridin-3-yl)-3-(2-chloro-7-isopropylpyrazolo[1,5-a]pyrimidin-6-yl)urea] |  | 4 | 100 | 74
COCC(OC)c1c(NC(=O)Nc2cnc(-n3nccn3)c(Cl)c2)cnc2cc(Cl)nn12 (stereo not drawn) [Example 56, 1-(5-chloro-6-(2H-1,2,3-triazol-2-yl)pyridin-3-yl)-3-(2-chloro-7-(1,2-dimethoxyethyl)pyrazolo[1,5-a]pyrimidin-6-yl)urea] |  | 5 | 95 | 131
CO[C@H](c1c(NC(=O)Nc2cnc(-n3nccn3)c(Cl)c2)cnc2cc(Cl)nn12)C(C)C [Example 74, (S)-1-(5-chloro-6-(2H-1,2,3-triazol-2-yl)pyridin-3-yl)-3-(2-chloro-7-(1-methoxy-2-methylpropyl)pyrazolo[1,5-a]pyrimidin-6-yl)urea] |  | 2 | 32 | 30
CC(C)c1c(NC(=O)Nc2cc(Cl)c(-n3nccn3)c(Cl)c2)cnc2cc(Cl)nn12 [Example 30, 1-(2-chloro-7-isopropylpyrazolo[1,5-a]pyrimidin-6-yl)-3-(3,5-dichloro-4-(2H-1,2,3-triazol-2-yl)phenyl)urea] |  | 3 | 507 | 382
COC(c1c(NC(=O)Nc2ccnc(C(F)(F)F)c2)cnc2cc(Cl)nn12)C1CCOCC1 (stereo not drawn) [Example 90, 1-(2-chloro-7-(methoxy(tetrahydro-2H-pyran-4-yl)methyl)pyrazolo[1,5-a]pyrimidin-6-yl)-3-(2-(trifluoromethyl)pyridin-4-yl)urea] |  | 97 | 927 | 696
CC(C)c1c(NC(=O)Nc2cnc(-n3cc(CN)cn3)c(Cl)c2)cnc2cc(Cl)nn12 [Example 118, 1-(6-(4-(aminomethyl)-1H-pyrazol-1-yl)-5-chloropyridin-3-yl)-3-(2-chloro-7-isopropylpyrazolo[1,5-a]pyrimidin-6-yl)urea] |  | 28 | 112 | 256
COCC1(c2c(NC(=O)Nc3cnc(-n4nccn4)c(Cl)c3)cnc3cc(C)nn23)CC1 [Example 78, 1-(5-chloro-6-(2H-1,2,3-triazol-2-yl)pyridin-3-yl)-3-(7-(1-(methoxymethyl)cyclopropyl)-2-methylpyrazolo[1,5-a]pyrimidin-6-yl)urea] |  | 21 | 76 | 159
COCC1(c2c(NC(=O)Nc3cnc(-n4nccn4)c(Cl)c3)cnc3cc(Cl)nn23)CCCO1 (stereo not drawn) [Example 91, 1-(5-chloro-6-(2H-1,2,3-triazol-2-yl)pyridin-3-yl)-3-(2-chloro-7-(2-(methoxymethyl)tetrahydrofuran-2-yl)pyrazolo[1,5-a]pyrimidin-6-yl)urea] |  | 2 | 89 | 105
CO[C@H](c1c(NC(=O)Nc2ccnc(C(F)(F)F)c2)cnc2cc(Cl)nn12)C(C)C [Example 75, (S)-1-(2-chloro-7-(1-methoxy-2-methylpropyl)pyrazolo[1,5-a]pyrimidin-6-yl)-3-(2-(trifluoromethyl)pyridin-4-yl)urea] |  | 5 | 72 | 100
CC(C)c1c(NC(=O)Nc2cc(C(F)(F)F)cn(C)c2=O)cnc2cc(Cl)nn12 [Example 32, 1-(2-chloro-7-isopropylpyrazolo[1,5-a]pyrimidin-6-yl)-3-(1-methyl-2-oxo-5-(trifluoromethyl)-1,2-dihydropyridin-3-yl)urea] |  | 19 | 221 | 214
CO[C@@H](C)c1c(NC(=O)Nc2cnc(-n3nccn3)c(Cl)c2)cnc2cc(C)nn12 [Example 71, (S)-1-(5-chloro-6-(2H-1,2,3-triazol-2-yl)pyridin-3-yl)-3-(7-(1-methoxyethyl)-2-methylpyrazolo[1,5-a]pyrimidin-6-yl)urea] |  | 5 | 14 | 79
COCC(C)(OC)c1c(NC(=O)Nc2cnc(-n3nccn3)c(Cl)c2)cnc2cc(Cl)nn12 (stereo not drawn) [Example 81, 1-(5-chloro-6-(2H-1,2,3-triazol-2-yl)pyridin-3-yl)-3-(2-chloro-7-(1,2-dimethoxypropan-2-y)pyrazolo[1,5-a]pyrimidin-6-yl)urea] |  | 5 | 63 | 95
CC(C)c1c(NC(=O)Nc2cnc(N3CCCS3(=O)=O)c(C(F)(F)F)c2)cnc2cc(Cl)nn12 [Example 27, 1-(2-chloro-7-isopropylpyrazolo[1,5-a]pyrimidin-6-yl)-3-(6-(1,1-dioxidoisothiazolidin-2-yl)-5-(trifluoromethyl)pyridin-3-yl)urea] |  | 6 | 248 | 54
COc1ncc(NC(=O)Nc2cnc3cc(Cl)nn3c2C(C)C)cc1Cl [Example 18, 1-(5-chloro-6-methoxypyridin-3-yl)-3-(2-chloro-7-isopropylpyrazolo[1,5-a]pyrimidin-6-yl)urea] |  | 3 | 207 | 149
CC(C)c1c(NC(=O)Nc2cncc(Br)c2)cnc2cc(Cl)nn12 [Example 26, 1-(5-bromopyridin-3-yl)-3-(2-chloro-7-isopropylpyrazolo[1,5-a]pyrimidin-6-yl)urea] |  | 5 | 134 | 85
COCC1(c2c(NC(=O)Nc3cnc(-n4nccn4)c(Cl)c3)cnc3cc(Cl)nn23)CC1 [Example 76, 1-(5-chloro-6-(2H-1,2,3-triazol-2-yl)pyridin-3-yl)-3-(2-chloro-7-(1-(methoxymethyl)cyclopropyl)pyrazolo[1,5-a]pyrimidin-6-yl)urea] |  | 6 | 28 | 84
COCC1(c2c(NC(=O)Nc3ccnc(C(F)(F)F)c3)cnc3cc(C)nn23)CC1 [Example 79, 1-(7-(1-(methoxymethyl)cyclopropyl)-2-methylpyrazolo[1,5-a]pyrimidin-6-yl)-3-(2-(trifluoromethyl)pyridin-4-yl)urea] |  | 45 | 206 | 408
COC(C)(C)c1c(NC(=O)Nc2cnc(-n3nccn3)c(Cl)c2)cnc2cc(Cl)nn12 [Example 14, 1-(5-chloro-6-(2H-1,2,3-triazol-2-yl)pyridin-3-yl)-3-(2-chloro-7-(2-methoxypropan-2-yl)pyrazolo[1,5-a]pyrimidin-6-yl)urea] |  | 3 | 67 | 49
COC[C@H](OC)c1c(NC(=O)Nc2cnc(-n3nccn3)c(Cl)c2)cnc2cc(Cl)nn12 [Example 126, (R)-1-(5-chloro-6-(2H-1,2,3-triazol-2-yl)pyridin-3-yl)-3-(2-chloro-7-(1,2-dimethoxyethyl)pyrazolo[1,5-a]pyrimidin-6-yl)urea] |  | 5 | 58 | 119

Source: patent US9815842B2, “Pyrazolo pyrimidine derivatives and their use as MALT1 inhibitors” (Novartis AG, priority 2014, dated 2017)
